Assays:
Conditions in all cases: Compound concentration 10 µM
[1] = target: Delta-type opioid receptor (Homo sapiens) (UniProt P41143)
[2] = target: D(1B) dopamine receptor (Homo sapiens) (UniProt P21918)
[3] = target: Sigma non-opioid intracellular receptor 1 (Homo sapiens) (UniProt Q99720)
[4] = target: D(1A) dopamine receptor (Homo sapiens) (UniProt P21728)
[5] = target: 5-hydroxytryptamine receptor 2A (Homo sapiens) (UniProt P28223)
[6] = target: D(3) dopamine receptor (Homo sapiens) (UniProt P35462)
[7] = target: Beta-1 adrenergic receptor (Homo sapiens) (UniProt P08588)
[8] = target: T1, Alpha-2B adrenergic receptor (Homo sapiens) (UniProt P18089)
T1 sequence (whole entry): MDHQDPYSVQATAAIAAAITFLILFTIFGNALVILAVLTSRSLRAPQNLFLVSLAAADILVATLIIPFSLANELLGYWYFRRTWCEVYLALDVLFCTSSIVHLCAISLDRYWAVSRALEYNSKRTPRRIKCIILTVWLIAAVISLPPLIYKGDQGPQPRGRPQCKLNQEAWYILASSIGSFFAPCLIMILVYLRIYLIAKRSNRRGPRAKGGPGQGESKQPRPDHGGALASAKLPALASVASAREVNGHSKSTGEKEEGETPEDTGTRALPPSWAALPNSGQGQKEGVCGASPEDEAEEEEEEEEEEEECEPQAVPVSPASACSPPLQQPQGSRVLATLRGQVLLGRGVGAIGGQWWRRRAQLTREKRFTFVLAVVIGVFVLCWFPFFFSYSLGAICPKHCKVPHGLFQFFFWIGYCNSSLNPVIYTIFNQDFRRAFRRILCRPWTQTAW

[9] = target: Sodium-dependent noradrenaline transporter (Homo sapiens) (UniProt P23975)
[10] = target: Sodium-dependent dopamine transporter (Homo sapiens) (UniProt Q01959)
[11] = target: Histamine H4 receptor (Homo sapiens) (UniProt Q9H3N8)
[12] = target: Histamine H3 receptor (Homo sapiens) (UniProt Q9Y5N1)
[13] = target: Histamine H1 receptor (Homo sapiens) (UniProt P35367)
[14] = target: T2, Muscarinic acetylcholine receptor M4 (Homo sapiens) (UniProt P08173)
T2 sequence (whole entry): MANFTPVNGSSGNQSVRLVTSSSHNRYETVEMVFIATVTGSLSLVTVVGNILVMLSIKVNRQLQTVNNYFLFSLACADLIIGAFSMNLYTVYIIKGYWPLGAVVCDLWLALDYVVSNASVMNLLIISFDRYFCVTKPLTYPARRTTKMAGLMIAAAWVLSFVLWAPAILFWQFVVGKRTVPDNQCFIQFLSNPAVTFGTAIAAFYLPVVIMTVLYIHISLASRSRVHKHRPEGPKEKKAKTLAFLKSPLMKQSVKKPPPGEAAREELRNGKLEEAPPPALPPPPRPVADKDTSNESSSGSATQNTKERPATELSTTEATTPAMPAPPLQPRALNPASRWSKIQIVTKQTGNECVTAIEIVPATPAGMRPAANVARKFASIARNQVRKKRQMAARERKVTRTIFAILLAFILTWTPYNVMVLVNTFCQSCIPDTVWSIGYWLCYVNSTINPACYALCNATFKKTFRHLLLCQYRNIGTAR

[15] = target: 5-hydroxytryptamine receptor 7 (Homo sapiens) (UniProt P34969)
[16] = target: T3, 5-hydroxytryptamine receptor 1A (Homo sapiens) (UniProt P08908)
T3 sequence (whole entry): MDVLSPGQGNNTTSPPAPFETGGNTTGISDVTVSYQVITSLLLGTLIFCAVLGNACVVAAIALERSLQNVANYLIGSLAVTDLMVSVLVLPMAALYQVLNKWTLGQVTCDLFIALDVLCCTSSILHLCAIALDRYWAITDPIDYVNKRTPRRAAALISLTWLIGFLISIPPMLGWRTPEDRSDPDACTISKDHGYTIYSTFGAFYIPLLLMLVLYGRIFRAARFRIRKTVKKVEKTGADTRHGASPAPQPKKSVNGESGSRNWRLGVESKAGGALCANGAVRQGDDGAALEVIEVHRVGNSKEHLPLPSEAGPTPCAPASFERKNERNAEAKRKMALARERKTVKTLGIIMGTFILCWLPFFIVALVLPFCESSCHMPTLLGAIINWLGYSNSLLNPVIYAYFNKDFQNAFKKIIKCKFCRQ

[17] = target: D(2) dopamine receptor (Homo sapiens) (UniProt P14416)
[18] = target: Kappa-type opioid receptor (Homo sapiens) (UniProt P41145)
[19] = target: T4, Alpha-1D adrenergic receptor (Homo sapiens) (UniProt P25100)
T4 sequence (whole entry): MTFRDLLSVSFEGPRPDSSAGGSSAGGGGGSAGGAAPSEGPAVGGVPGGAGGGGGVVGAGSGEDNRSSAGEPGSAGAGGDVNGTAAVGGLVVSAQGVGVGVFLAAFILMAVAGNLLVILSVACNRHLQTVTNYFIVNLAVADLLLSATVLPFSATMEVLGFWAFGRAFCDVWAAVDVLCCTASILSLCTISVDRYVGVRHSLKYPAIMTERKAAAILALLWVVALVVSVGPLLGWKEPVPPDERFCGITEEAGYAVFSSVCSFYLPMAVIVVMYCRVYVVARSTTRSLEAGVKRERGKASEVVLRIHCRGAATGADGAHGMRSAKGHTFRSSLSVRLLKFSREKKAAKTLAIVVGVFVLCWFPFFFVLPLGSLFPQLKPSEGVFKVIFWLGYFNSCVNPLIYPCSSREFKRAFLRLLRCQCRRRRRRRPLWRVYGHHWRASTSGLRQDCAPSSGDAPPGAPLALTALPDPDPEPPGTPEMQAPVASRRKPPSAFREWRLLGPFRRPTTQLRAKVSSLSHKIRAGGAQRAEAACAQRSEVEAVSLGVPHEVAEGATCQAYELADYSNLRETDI

[20] = target: 5-hydroxytryptamine receptor 6 (Homo sapiens) (UniProt P50406)
Sequence of 5-hydroxytryptamine receptor 6 (Homo sapiens) (P50406 whole entry): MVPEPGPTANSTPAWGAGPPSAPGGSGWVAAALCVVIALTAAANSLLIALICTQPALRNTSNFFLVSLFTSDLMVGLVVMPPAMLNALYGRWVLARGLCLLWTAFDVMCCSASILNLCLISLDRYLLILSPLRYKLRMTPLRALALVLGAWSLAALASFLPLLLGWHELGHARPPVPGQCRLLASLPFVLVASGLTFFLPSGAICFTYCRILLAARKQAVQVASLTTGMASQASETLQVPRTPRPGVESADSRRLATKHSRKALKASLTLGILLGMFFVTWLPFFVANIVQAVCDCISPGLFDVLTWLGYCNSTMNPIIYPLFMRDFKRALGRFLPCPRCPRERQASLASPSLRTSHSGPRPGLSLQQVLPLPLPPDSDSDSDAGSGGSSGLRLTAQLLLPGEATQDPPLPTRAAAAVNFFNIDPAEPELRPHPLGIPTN

Sequence of D(1A) dopamine receptor (Homo sapiens) (P21728 whole entry): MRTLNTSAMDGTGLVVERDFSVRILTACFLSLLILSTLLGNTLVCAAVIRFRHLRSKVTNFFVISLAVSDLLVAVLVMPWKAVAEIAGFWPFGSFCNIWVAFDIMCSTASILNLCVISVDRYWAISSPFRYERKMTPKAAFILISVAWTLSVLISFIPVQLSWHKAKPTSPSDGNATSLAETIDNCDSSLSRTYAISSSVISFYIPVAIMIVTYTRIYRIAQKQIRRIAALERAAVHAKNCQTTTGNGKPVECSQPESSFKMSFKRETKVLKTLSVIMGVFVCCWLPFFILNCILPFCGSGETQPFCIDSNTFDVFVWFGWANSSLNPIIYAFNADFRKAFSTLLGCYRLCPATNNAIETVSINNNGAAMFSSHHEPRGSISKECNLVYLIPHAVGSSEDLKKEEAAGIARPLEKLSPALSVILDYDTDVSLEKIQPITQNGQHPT
Sequence of 5-hydroxytryptamine receptor 2A (Homo sapiens) (P28223 whole entry): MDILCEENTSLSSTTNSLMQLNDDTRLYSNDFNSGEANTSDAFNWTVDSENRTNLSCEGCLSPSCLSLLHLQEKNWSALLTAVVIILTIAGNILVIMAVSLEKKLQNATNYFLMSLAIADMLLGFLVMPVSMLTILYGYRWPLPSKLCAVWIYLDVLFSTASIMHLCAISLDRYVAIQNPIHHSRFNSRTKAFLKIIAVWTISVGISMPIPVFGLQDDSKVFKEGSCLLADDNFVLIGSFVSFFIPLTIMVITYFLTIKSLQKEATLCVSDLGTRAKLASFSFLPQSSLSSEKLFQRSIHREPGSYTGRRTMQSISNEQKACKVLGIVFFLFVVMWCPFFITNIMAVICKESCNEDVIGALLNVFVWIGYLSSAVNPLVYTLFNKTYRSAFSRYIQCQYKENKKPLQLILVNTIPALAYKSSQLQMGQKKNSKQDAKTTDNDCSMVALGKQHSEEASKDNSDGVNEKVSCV
Sequence of Histamine H4 receptor (Homo sapiens) (Q9H3N8 whole entry): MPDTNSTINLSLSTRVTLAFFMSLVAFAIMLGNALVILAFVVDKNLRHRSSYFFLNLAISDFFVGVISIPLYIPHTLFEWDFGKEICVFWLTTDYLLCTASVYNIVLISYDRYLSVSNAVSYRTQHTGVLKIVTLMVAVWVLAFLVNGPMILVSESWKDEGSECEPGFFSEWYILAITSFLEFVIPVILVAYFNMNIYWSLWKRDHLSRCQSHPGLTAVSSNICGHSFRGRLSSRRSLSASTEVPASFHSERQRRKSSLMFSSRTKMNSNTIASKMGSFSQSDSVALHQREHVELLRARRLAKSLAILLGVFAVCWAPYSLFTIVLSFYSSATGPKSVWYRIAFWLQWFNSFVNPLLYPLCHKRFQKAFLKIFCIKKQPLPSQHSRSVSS
Sequence of Histamine H3 receptor (Homo sapiens) (Q9Y5N1 whole entry): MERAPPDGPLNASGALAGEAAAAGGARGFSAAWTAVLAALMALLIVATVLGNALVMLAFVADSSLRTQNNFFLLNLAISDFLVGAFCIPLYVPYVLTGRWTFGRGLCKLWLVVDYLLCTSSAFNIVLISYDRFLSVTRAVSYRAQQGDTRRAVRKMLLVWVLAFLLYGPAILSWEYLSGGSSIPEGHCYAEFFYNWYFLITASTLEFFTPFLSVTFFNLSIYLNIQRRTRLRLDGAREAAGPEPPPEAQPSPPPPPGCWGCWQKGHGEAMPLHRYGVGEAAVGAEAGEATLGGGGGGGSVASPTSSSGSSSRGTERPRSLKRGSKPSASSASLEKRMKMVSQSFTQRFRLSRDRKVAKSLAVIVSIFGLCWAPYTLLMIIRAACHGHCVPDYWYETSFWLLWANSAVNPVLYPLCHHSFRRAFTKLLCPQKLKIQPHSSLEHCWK
Sequence of Sodium-dependent noradrenaline transporter (Homo sapiens) (P23975 whole entry): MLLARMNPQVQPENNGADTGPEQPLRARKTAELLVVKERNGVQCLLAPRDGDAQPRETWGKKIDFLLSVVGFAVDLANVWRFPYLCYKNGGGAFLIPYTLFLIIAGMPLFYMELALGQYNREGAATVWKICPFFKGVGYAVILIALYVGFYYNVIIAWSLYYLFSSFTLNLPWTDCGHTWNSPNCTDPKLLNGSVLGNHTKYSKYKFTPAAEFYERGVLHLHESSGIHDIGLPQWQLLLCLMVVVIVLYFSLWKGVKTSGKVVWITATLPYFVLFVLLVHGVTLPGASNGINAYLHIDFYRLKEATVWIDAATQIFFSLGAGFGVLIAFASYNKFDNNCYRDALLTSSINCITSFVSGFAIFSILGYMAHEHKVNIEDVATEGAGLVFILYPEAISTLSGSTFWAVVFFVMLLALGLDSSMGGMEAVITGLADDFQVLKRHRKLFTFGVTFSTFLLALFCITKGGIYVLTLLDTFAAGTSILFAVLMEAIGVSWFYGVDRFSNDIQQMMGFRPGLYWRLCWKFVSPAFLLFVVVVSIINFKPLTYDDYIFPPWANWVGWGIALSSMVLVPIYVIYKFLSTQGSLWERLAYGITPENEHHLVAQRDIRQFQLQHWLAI
Sequence of Sigma non-opioid intracellular receptor 1 (Homo sapiens) (Q99720 whole entry): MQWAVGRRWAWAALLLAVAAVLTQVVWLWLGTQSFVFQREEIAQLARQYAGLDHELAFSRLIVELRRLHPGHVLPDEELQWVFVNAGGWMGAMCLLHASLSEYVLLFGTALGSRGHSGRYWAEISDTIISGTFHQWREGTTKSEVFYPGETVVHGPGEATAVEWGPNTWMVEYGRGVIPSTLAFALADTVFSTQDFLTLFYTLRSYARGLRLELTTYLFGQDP
Sequence of 5-hydroxytryptamine receptor 7 (Homo sapiens) (P34969 whole entry): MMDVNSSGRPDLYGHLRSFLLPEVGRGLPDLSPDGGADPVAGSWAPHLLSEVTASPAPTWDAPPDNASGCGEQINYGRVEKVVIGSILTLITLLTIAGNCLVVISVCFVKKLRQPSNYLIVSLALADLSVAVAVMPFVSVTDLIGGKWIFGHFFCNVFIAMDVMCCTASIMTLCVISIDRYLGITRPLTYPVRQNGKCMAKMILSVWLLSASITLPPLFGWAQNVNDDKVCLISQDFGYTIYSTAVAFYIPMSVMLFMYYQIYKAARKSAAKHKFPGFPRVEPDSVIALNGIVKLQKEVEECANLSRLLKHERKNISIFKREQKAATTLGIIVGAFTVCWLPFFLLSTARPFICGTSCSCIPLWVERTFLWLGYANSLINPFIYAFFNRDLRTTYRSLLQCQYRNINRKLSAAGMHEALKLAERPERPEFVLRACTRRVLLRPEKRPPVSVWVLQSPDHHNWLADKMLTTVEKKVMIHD
Sequence of Histamine H1 receptor (Homo sapiens) (P35367 whole entry): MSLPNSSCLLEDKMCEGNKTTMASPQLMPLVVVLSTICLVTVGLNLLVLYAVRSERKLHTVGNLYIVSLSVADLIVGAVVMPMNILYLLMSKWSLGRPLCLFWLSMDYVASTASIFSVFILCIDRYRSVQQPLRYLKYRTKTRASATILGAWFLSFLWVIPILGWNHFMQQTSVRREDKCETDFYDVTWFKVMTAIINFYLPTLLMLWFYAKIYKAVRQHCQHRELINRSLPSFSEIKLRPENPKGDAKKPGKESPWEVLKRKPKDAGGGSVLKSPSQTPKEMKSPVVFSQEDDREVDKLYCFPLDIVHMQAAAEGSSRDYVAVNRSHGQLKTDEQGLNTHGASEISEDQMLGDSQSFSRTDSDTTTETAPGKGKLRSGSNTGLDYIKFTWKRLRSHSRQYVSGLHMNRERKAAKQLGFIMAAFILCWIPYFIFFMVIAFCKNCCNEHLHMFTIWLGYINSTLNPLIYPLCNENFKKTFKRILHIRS
Sequence of Beta-1 adrenergic receptor (Homo sapiens) (P08588 whole entry, looked up): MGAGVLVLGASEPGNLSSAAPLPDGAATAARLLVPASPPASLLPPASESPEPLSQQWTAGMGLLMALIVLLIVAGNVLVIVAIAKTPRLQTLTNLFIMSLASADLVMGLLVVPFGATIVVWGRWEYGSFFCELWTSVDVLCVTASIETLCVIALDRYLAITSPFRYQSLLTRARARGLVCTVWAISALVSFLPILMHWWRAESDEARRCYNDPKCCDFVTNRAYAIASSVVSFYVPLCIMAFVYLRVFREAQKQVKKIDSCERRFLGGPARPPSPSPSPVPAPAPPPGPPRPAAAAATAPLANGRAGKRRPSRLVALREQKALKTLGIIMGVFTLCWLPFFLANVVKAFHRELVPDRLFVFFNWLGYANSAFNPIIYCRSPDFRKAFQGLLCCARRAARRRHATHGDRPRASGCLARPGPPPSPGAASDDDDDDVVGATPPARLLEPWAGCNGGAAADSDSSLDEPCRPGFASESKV
Sequence of D(2) dopamine receptor (Homo sapiens) (P14416 whole entry): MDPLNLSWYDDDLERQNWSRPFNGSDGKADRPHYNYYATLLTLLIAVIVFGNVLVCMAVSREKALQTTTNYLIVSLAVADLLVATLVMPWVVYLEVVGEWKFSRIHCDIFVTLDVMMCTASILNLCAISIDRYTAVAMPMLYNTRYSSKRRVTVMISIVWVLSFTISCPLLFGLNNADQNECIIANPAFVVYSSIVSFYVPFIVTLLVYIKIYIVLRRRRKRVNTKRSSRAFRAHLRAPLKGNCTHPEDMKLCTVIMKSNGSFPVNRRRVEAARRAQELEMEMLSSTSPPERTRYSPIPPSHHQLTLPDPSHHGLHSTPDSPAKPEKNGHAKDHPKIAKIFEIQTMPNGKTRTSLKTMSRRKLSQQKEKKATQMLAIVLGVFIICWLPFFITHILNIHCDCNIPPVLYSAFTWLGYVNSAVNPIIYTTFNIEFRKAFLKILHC

Structure (SMILES)	inhibition [1] [%]	inhibition [2] [%]	inhibition [3] [%]	inhibition [4] [%]	inhibition [5] [%]	inhibition [6] [%]	inhibition [7] [%]	inhibition [8] [%]	inhibition [9] [%]	inhibition [10] [%]	inhibition [11] [%]	inhibition [12] [%]	inhibition [13] [%]	inhibition [14] [%]	inhibition [15] [%]	inhibition [16] [%]	inhibition [17] [%]	inhibition [18] [%]	inhibition [19] [%]	inhibition [20] [%]
CC1CCN(CC[C@H]2CCCN2S(=O)(=O)c2cccc(O)c2)CC1	7.91	85.1	-8.64	-5.94	28.8	61.6	9.71	51	30.6	46.1	10.6	-4.13	44.4	8.85	85.8	0.65	33.5	50.4		
COc1ccc2cc(S(=O)(=O)N[C@H](CC(=O)N[C@H](Cc3ccc(CN4[C@H](C)CCC[C@@H]4C)cc3)C(=O)N(C)C(C)C)c3ccc4c(c3)OCO4)ccc2c1	8.79		102	11.7	28.8	26	-0.19	33.5	25.7	36.8	9.34	62.1	33.1	46.7	-0.02	-7.48	2.14	96.7	15.9	4.73
N#Cc1c(N)nc(SCc2csc(-c3ccc(Cl)cc3)n2)c(C#N)c1-c1ccc(OCCO)cc1			39	11.3	18.4	12.5	26.8	2.13	33.5	64.1	-8.37	5.12	14.2	-8.79	3.33	-0.89		-8.5	6.13	
N#Cc1c[nH]c2c(C(=O)N3CCN(CCc4ccc(F)cc4)CC3)cccc12		8.62	87.6	27.9	100	10.4	35.6	-6.2	71.6	36.2	-2.67	-0.43	46.1		50.6	21.2	7.47	7.51	-4.02	37.8
CCc1nn(CCCN2CCN(c3cccc(Cl)c3)CC2)c(=O)n1CCOc1ccccc1	13	6.13	1.48	77.7	82	86.1	30.7	103	85.1	78.7	5.27	-2.65	94.5		97	42.6	69.7	49.2	83.9	74.7
Cc1cc(C)c(N)c(C#Cc2cccc(F)c2)n1	-1.56	0.26	3.28	17.1	5.87	9.35	-7.35	12.9	65.2	9.26	8.38	-8.58	9.77		7.78	-6.48	0.33	18.4	28.9	16.2
CC(C)[C@H](CO)Nc1nc(Nc2cccc(Cl)c2)c2ncn(C(C)C)c2n1	5.89	8.79	14.4	20.4	41.8	22.4	29.9	28.1	54.1	17.5	11.2		-4.77		11.4	5.71	11	34.6	13	52.3
CC1(C)SSC(C)(C)[C@@H](NC(=O)[C@@H](N)Cc2ccc(O)cc2)C(=O)NCC(=O)N[C@@H](Cc2ccccc2)C(=O)N[C@H]1C(=O)O		3.84	21.7	11.4	24.5	0.23	-5.41	6.52	3.43	27.3	-8.56	-2.58	3.33	-2.51	-0.55	3.47	30.3	-4.89		
NC[C@H](O)c1ccc(O)c(O)c1	-5.14	34.8	39.1	2.57	10.9	57.9	66.2	90.6	15.2	21.8					-5	-9.29	6.01	0.54	64.8	
CC(C)NCC(O)COc1cccc2[nH]ccc12 (stereo not given)	-2.56	26.3	38.7	29.3		65.4	70.9		27.1	21.3	-8.33			4.2	37.8	94.1	30.5	46.9	13.6	4.75
